In brackets after ≈: the same amount, converted by molar mass. Where two headings read alike, the source gives them in different places. Bounds are passed on as bounds.

Assay [1] can be described thus: stopped-flow CO2 hydrase assay. The class given is biochemical, Homo sapiens. To be noted: read-out: hCA I.
Another assay deals with T1, CgNce103 (Nakaseomyces glabratus, UniProt Q6FTL6).
T1 construct: gene NCE103; recombinant, obtained in-house as previously reported; beta-class zinc enzyme
T1 sequence (Q6FTL6 1-219): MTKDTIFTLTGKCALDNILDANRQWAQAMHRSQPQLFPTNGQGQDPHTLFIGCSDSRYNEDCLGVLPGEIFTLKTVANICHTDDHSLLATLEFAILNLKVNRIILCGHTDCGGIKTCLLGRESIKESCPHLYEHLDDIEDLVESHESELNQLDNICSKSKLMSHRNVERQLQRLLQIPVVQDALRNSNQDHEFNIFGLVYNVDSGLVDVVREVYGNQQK
Put plainly: stopped-flow CO2 hydrase assay. In kind it is biochemical.

Assay [2] has as its system T2, C. tropicalis 3 strains.
T2 construct: 3 clinical isolates
Description: microbe, parasite or virus in culture. Details: species or system clinical Candida isolates; CLSI broth microdilution MIC, Sabouraud dextrose broth, 35 °C, visual complete growth inhibition. The settings on record: Candida tropicalis, 24 h, read-out: Tested Fungi (MIC Values μg/mL) / C. tropicalis 3 strains. How it is done: (§1) The in vitro antifungal activities were determined by the broth microdilution method with sabouraud dextrose broth (BBL Microbiology Systems, Cockeysville, MD, USA), as recommended by the by the CLSI [43]. Ninety-six-well polystyrene microtitre plates containing serial dilutions of each compound were inoculated with each microorganism to yield the appropriate density (1–5 × 10^3 cells/mL) in a 100-μL final volume. Each plate included (i) fungi without the addition of the compound, (ii) just the medium, and (iii) just the compound. Topical and systemic antifungal reference drugs, clotrimazole and fluconazole, were inserted in the experiment. The plates were incubated for 24 h at 35 °C. […] Three independent experiments were performed in triplicate. The antimicrobial activity of these thiazolidinones was evaluated versus 24 clinical Gram-positive (S. aureus and S. epidermidis) and Gram-negative (E. coli and Enterobacter spp.) microorganisms. The antifungal activity of these derivatives was then tested versus 16 clinical fungal isolates belonging to the most relevant Candida spp. (C. albicans, C. tropicalis, C. parapsilosis, C. sakè, and C. glabrata). Prior to testing, each isolate was cultured on a selective medium to ensure purity and optimal growth, as previously reported. The isolates were routinely identified by the morphological aspects of colonies and by biochemical identification. The used clinical isolates were collected from specimens of patients at the ‘Azienda Policlinico Umberto I’ (Sapienza University of Rome) and were obtained from hematology/oncology and surgery departments, which also included an intensive care unit. In particular, the samples were isolated from the upper and lower respiratory tract, blood, and indwelling venous catheters; the isolates were identified by conventional methodologies. Participating subjects gave their written informed consent for this study.

For assay [3], the system named is T3, Candida sake C. sakè 3 strains.
T3 construct: 3 clinical isolates
Description: microbe, parasite or virus in culture. Also noted: species or system clinical Candida isolates; CLSI broth microdilution MIC, Sabouraud dextrose broth, 35 °C, visual complete growth inhibition. The settings on record: Fermentozyma sake, 24 h. How it is done:
as §1

Assay [4] has as its system T4, C. glabrata 3 strains.
T4 construct: 3 clinical isolates
Put plainly: microbe, parasite or virus in culture. Details: species or system clinical Candida isolates; CLSI broth microdilution MIC, Sabouraud dextrose broth, 35 °C, visual complete growth inhibition. The settings on record: Nakaseomyces glabratus, 24 h. How it is done: as §1

In assay [5] the test system is T5, C. parapsilosis 2 strains.
T5 construct: 2 clinical isolates
Put plainly: microbe, parasite or virus in culture. Also noted: species or system clinical Candida isolates; CLSI broth microdilution MIC, Sabouraud dextrose broth, 35 °C, visual complete growth inhibition. To be noted: Lodderomyces parapsilosis, 24 h, read-out: Tested Fungi (MIC Values μg/mL) / C. parapsilosis 2 strains. How it is done:
as §1

The target in a further assay is T6, hCA I (Homo sapiens, UniProt P00915).
T6 construct: gene CA1; recombinant, obtained in-house as previously reported
T6 sequence (P00915 2-261): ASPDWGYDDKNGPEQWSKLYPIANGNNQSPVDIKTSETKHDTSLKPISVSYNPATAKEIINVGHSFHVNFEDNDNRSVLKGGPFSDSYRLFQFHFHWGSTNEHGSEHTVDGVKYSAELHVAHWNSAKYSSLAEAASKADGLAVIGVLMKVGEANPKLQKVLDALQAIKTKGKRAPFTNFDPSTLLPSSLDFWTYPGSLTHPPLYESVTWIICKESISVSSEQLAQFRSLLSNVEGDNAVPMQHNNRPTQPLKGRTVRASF
Description: stopped-flow CO2 hydrase assay. In kind it is biochemical. The text has this: stopped-flow CO2 hydrase assay on hCA I

The test system of assay [6] is T7, C. albicans 5 strains.
T7 construct: 5 clinical isolates
Description: microbe, parasite or virus in culture. To be noted: Candida albicans, 24 h, read-out: Tested Fungi (MIC Values μg/mL) / C. albicans 5 strains. Also noted: species or system clinical Candida isolates; broth microdilution antifungal MIC, visual growth inhibition, CLSI. How it is done: as §1

The next assay concerns the target T8, hCA II (Homo sapiens, UniProt P00918).
T8 construct: gene CA2; recombinant, obtained in-house as previously reported
Description: stopped-flow CO2 hydrase assay. The class given is biochemical. The text has this: stopped-flow CO2 hydrase assay on hCA II

The subject of assay [7] is T4, C. glabrata 3 strains. Description: microbe, parasite or virus in culture. Details: species or system clinical Candida isolates; broth microdilution antifungal MIC, visual growth inhibition, CLSI. The settings on record: Nakaseomyces glabratus, 24 h, read-out: Tested Fungi (MIC Values μg/mL) / C. glabrata 3 strains. How it is done: as §1
For assay [8], the system named is T2, C. tropicalis 3 strains. Put plainly: microbe, parasite or virus in culture. Also noted: species or system clinical Candida isolates; broth microdilution antifungal MIC, visual growth inhibition, CLSI. To be noted: Candida tropicalis, 24 h, read-out: Tested Fungi (MIC Values μg/mL) / C. tropicalis 3 strains. How it is done: as §1
For assay [9], the system named is T3, Candida sake C. sakè 3 strains. Description: microbe, parasite or virus in culture. Also noted: species or system clinical Candida isolates; broth microdilution antifungal MIC, visual growth inhibition, CLSI. To be noted: Fermentozyma sake, 24 h; read-out: Tested Fungi (MIC Values μg/mL) / C. sakè 3 strains. How it is done:
as §1

Assay [10] concerns T7, C. albicans 5 strains. Description: microbe, parasite or virus in culture. Details: species or system clinical Candida isolates; CLSI broth microdilution MIC, Sabouraud dextrose broth, 35 °C, visual complete growth inhibition. The settings on record: Candida albicans, 24 h. How it is done:
as §1

Setting [11] is: read-out: Tested Fungi (MIC Values μg/mL) / C. sakè 3 strains.
Where [12] appears, read: read-out: Tested Fungi (MIC Values μg/mL) / C. glabrata 3 strains.
Where [13] appears, read: read-out: Tested Fungi (MIC Values μg/mL) / C. sakè 3 strains / 8–32.
Setting [14] is: read-out: Tested Fungi (MIC Values μg/mL) / C. glabrata 3 strains / 8–32.

As for `O=C(N/N=C1\SCC(=O)N1c1ccccc1F)C(O)c1ccccc1` (stereo not drawn) [3a], the Ki in assay [1] was over 100 µM; on CgNce103, 270 nM; on hCA I, over 100 µM. For the same molecule, the MIC with C. tropicalis 3 strains [2] is 32 µg/mL (≈ 89 µM); in [3] (setting [11]) it was 16 µg/mL (≈ 44.5 µM); in the assay with C. glabrata 3 strains [4] (setting [12]), 16 µg/mL (≈ 44.5 µM); in assay [5], 32 µg/mL (≈ 89 µM); in the assay on C. albicans 5 strains [6] it was 4 to 8 µg/mL (≈ 11.1 to 22.3 µM).

Take `O=C(N/N=C1\SCC(=O)N1c1cccc(F)c1)C(O)c1ccccc1` (stereo not drawn) [3b]: the results for the Ki (in assay [1]; at CgNce103; at hCA I) were over 100 µM, 480 nM and over 100 µM, respectively. In addition, the MIC is 32 µg/mL (≈ 89 µM) in the assay on C. tropicalis 3 strains [2]; 16 µg/mL (≈ 44.5 µM) in assay [3] (setting [11]); 16 µg/mL (≈ 44.5 µM) with C. glabrata 3 strains [4] (setting [12]); 32 µg/mL (≈ 89 µM) in assay [5]; 4 to 8 µg/mL (≈ 11.1 to 22.3 µM) with C. albicans 5 strains [6].

As to `O=C(N/N=C1\SCC(=O)N1c1ccc(F)cc1)C(O)c1ccccc1` (stereo not drawn) [3c], the Ki was 76.7 µM on hCA II, 380 nM at CgNce103 and over 100 µM at hCA I. Also, the MIC was 32 µg/mL (≈ 89 µM) in the assay on C. tropicalis 3 strains [2]; 16 µg/mL (≈ 44.5 µM) in [3] (setting [11]); 16 µg/mL (≈ 44.5 µM) in the assay on C. glabrata 3 strains [4] (setting [12]); 32 µg/mL (≈ 89 µM) in assay [5]; 4 to 8 µg/mL (≈ 11.1 to 22.3 µM) with C. albicans 5 strains [6].

With `O=C(N/N=C1\SCC(=O)N1c1ccc(Cl)cc1)C(O)c1ccccc1` (stereo not drawn) [3f], the figures for the Ki at hCA II, on CgNce103 and on hCA I were 62.9 µM, 510 nM and over 100 µM, respectively. Moreover, the MIC in the assay with C. tropicalis 3 strains [2] is 32 µg/mL (≈ 85.1 µM); in assay [3] (setting [11]) it was 16 µg/mL (≈ 42.6 µM); in assay [5], 16 µg/mL (≈ 42.6 µM); with C. albicans 5 strains [6] it was 4 to 8 µg/mL (≈ 10.6 to 21.3 µM); with C. glabrata 3 strains [7] it was 4 to 8 µg/mL (≈ 10.6 to 21.3 µM).

With `O=C(N/N=C1\SCC(=O)N1c1cccc(Br)c1)C(O)c1ccccc1` (stereo not drawn) [3h], the Ki at hCA II is 55.7 µM; at CgNce103, 820 nM; at hCA I, over 100 µM. Besides, the MIC was 16 µg/mL (≈ 38.1 µM) in assay [3] (setting [11]); 8 µg/mL (≈ 19 µM) in assay [5]; 8 to 16 µg/mL (≈ 19 to 38.1 µM) in the assay on C. albicans 5 strains [6]; 8 to 32 µg/mL (≈ 19 to 76.1 µM) with C. tropicalis 3 strains [8]; 8 to 32 µg/mL (≈ 19 to 76.1 µM) in the assay on C. glabrata 3 strains [7].

`O=C(N/N=C1\SCC(=O)N1c1ccc(Br)cc1)C(O)c1ccccc1` (stereo not drawn) [3i]: the figures for the Ki at hCA II, on CgNce103 and on hCA I were 47.4 µM, 870 nM and over 100 µM, respectively. Besides, the MIC in the assay on C. tropicalis 3 strains [2] is 16 µg/mL (≈ 38.1 µM); in assay [3] (setting [11]), 16 µg/mL (≈ 38.1 µM); in assay [5], 16 µg/mL (≈ 38.1 µM); with C. albicans 5 strains [6], 8 to 16 µg/mL (≈ 19 to 38.1 µM); in the assay with C. glabrata 3 strains [7] it was 4 to 8 µg/mL (≈ 9.52 to 19 µM).

In the case of `CC1S/C(=N\NC(=O)C(O)c2ccccc2)N(c2cccc(Br)c2)C1=O` (stereo not drawn) [4e], the Ki at hCA II was 68.2 µM; on CgNce103, 560 nM; on hCA I, over 100 µM. Also, the MIC was 32 µg/mL (≈ 73.7 µM) in [5]; 4 to 16 µg/mL (≈ 9.21 to 36.8 µM) with C. albicans 5 strains [6]; 4 to 8 µg/mL (≈ 9.21 to 18.4 µM) in the assay on C. tropicalis 3 strains [8]; 4 to 8 µg/mL (≈ 9.21 to 18.4 µM) in assay [9]; 4 to 8 µg/mL (≈ 9.21 to 18.4 µM) in the assay with C. glabrata 3 strains [7].

Take `Clc1ccccc1C(c1ccccc1)(c1ccccc1)n1ccnc1` [Clotrimazole]: the MIC (in the assay with C. albicans 5 strains [10] (read-out: Tested Fungi (MIC Values μg/mL) / C. albicans 5 strains / 8–32 / 32–128); in the assay with C. tropicalis 3 strains [2]; in assay [3] (setting [13]); in the assay on C. glabrata 3 strains [4] (setting [14]); in assay [5]) was 2 µg/mL (≈ 5.8 µM) each time.

Regarding `OC(Cn1cncn1)(Cn1cncn1)c1ccc(F)cc1F` [Fluconazole], the MIC (in the assay on C. albicans 5 strains [10] (read-out: Tested Fungi (MIC Values μg/mL) / C. albicans 5 strains / 32–128); in the assay with C. tropicalis 3 strains [2]; in [3] (setting [13]); with C. glabrata 3 strains [4] (setting [14]); in [5]) was 2 µg/mL (≈ 6.53 µM) each time.
